Measured values from ChEMBL document CHEMBL3797029, “Purinylpyridinylamino-based DFG-in/αC-helix-out B-Raf inhibitors: Applying mutant versus wild-type B-Raf selectivity indices for compound profiling” (Bioorg Med Chem, 2016).

Assays:
[1] = target: Tyrosine-protein kinase ABL1 (Homo sapiens) (UniProt P00519); test: Inhibition of partial length wild type nonphosphorylated human ABL1 expressed in mammalian system assessed as enzyme activity at 1 uM relative to control; parameters: scale not given: the % may be the effect or the level left
[2] = target: Ephrin type-A receptor 4 (Homo sapiens) (UniProt P54764); test: Inhibition of partial length wild type human EPHA4 expressed in bacterial system assessed as enzyme activity at 1 uM relative to control; parameters: scale not given: the % may be the effect or the level left
[3] = target: Dual specificity tyrosine-phosphorylation-regulated kinase 1B (Homo sapiens) (UniProt Q9Y463); test: Inhibition of partial length wild type human DYRK1B expressed in bacterial system assessed as enzyme activity at 1 uM relative to control; parameters: scale not given: the % may be the effect or the level left
[4] = target: Epidermal growth factor receptor (Homo sapiens) (UniProt P00533); test: Inhibition of partial length wild type human EGFR expressed in bacterial system assessed as enzyme activity at 1 uM relative to control; parameters: scale not given: the % may be the effect or the level left
[5] = target: Tyrosine-protein kinase JAK2 (Homo sapiens) (UniProt O60674); test: Inhibition of partial length wild type human JAK2 (catalytic JH1 domain) expressed in mammalian system assessed as enzyme activity at 1 uM relative to control; parameters: scale not given: the % may be the effect or the level left
[6] = target: Mitogen-activated protein kinase kinase kinase 9 (Homo sapiens) (UniProt P80192); test: Inhibition of partial length wild type human MLK1 expressed in bacterial system assessed as enzyme activity at 1 uM relative to control; parameters: scale not given: the % may be the effect or the level left
[7] = target: Serine/threonine-protein kinase 3 (Homo sapiens) (UniProt Q13188); test: Inhibition of partial length wild type human MST2 expressed in bacterial system assessed as enzyme activity at 1 uM relative to control; parameters: scale not given: the % may be the effect or the level left
[8] = target: Serine/threonine-protein kinase mTOR (Homo sapiens) (UniProt P42345); test: Inhibition of partial length wild type human MTOR expressed in mammalian system assessed as enzyme activity at 1 uM relative to control; parameters: scale not given: the % may be the effect or the level left
[9] = target: Mitogen-activated protein kinase 14 (Homo sapiens) (UniProt Q16539); test: Inhibition of full length wild type human p38alpha expressed in bacterial system assessed as enzyme activity at 1 uM relative to control; parameters: scale not given: the % may be the effect or the level left
[10] = target: Serine/threonine-protein kinase PLK1 (Homo sapiens) (UniProt P53350); test: Inhibition of partial length wild type human PLK1 expressed in mammalian system assessed as enzyme activity at 1 uM relative to control; parameters: scale not given: the % may be the effect or the level left
[11] = target: Protein kinase C epsilon type (Homo sapiens) (UniProt Q02156); test: Inhibition of partial length wild type human PRKCE expressed in mammalian system assessed as enzyme activity at 1 uM relative to control; parameters: scale not given: the % may be the effect or the level left
[12] = target: Ribosomal protein S6 kinase beta-1 (Homo sapiens) (UniProt P23443); test: Inhibition of partial length wild type human S6K1 expressed in mammalian system assessed as enzyme activity at 1 uM relative to control; parameters: scale not given: the % may be the effect or the level left
[13] = target: Proto-oncogene tyrosine-protein kinase Src (Homo sapiens) (UniProt P12931); test: Inhibition of partial length wild type human SRC expressed in bacterial system assessed as enzyme activity at 1 uM relative to control; parameters: scale not given: the % may be the effect or the level left
[14] = target: Serine/threonine-protein kinase TAO2 (Homo sapiens) (UniProt Q9UL54); test: Inhibition of partial length wild type human TAOK2 expressed in mammalian system assessed as enzyme activity at 1 uM relative to control; parameters: scale not given: the % may be the effect or the level left
[15] = target: Serine/threonine-protein kinase TBK1 (Homo sapiens) (UniProt Q9UHD2); test: Inhibition of full length wild type human TBK1 expressed in mammalian system assessed as enzyme activity at 1 uM relative to control; parameters: scale not given: the % may be the effect or the level left
[16] = target: Non-receptor tyrosine-protein kinase TYK2 (Homo sapiens) (UniProt P29597); test: Inhibition of partial length wild type human TYK2 (catalytic JH1 domain) expressed in mammalian system assessed as enzyme activity at 1 uM relative to control; parameters: scale not given: the % may be the effect or the level left
[17] = target: Serine/threonine-protein kinase B-raf (Homo sapiens, UniProt P15056, V600E); test: Inhibition of B-Raf V600E mutant (unknown origin) assessed as MEK1 phosphorylation using MEK1-Avitag as substrate after 1 hr by HTRF assay
MIA PaCa-2 = test: Selectivity index, ratio of EC50 for wild type B-Raf in human MIAPaCa2 cells to IC50 for B-Raf V600E mutant in human A375 cells; assay type: cell-based
[18] = target: Tyrosine-protein kinase Fyn (Homo sapiens) (UniProt P06241); test: Inhibition of partial length wild type human FYN expressed in bacterial system assessed as enzyme activity at 1 uM relative to control; parameters: scale not given: the % may be the effect or the level left
[19] = target: MAP kinase-interacting serine/threonine-protein kinase 1 (Homo sapiens) (UniProt Q9BUB5); test: Inhibition of full length wild type human MKNK1 expressed in mammalian system assessed as enzyme activity at 1 uM relative to control; parameters: scale not given: the % may be the effect or the level left
[20] = target: Mitogen-activated protein kinase kinase kinase 19 (Homo sapiens) (UniProt Q56UN5); test: Inhibition of partial length wild type human YSK4 expressed in mammalian system assessed as enzyme activity at 1 uM relative to control; parameters: scale not given: the % may be the effect or the level left
[21] = target: Ephrin type-A receptor 2 (Homo sapiens) (UniProt P29317); test: Inhibition of partial length wild type human EPHA2 expressed in bacterial system assessed as enzyme activity at 1 uM relative to control; parameters: scale not given: the % may be the effect or the level left
[22] = target: Fibroblast growth factor receptor 1 (Homo sapiens) (UniProt P11362); test: Inhibition of partial length wild type human FGFR1 expressed in bacterial system assessed as enzyme activity at 1 uM relative to control; parameters: scale not given: the % may be the effect or the level left
[23] = target: MAP kinase-activated protein kinase 2 (Homo sapiens) (UniProt P49137); test: Inhibition of partial length wild type human MAPKAPK2 expressed in bacterial system assessed as enzyme activity at 1 uM relative to control; parameters: scale not given: the % may be the effect or the level left
[24] = target: Mitogen-activated protein kinase kinase kinase 1 (Homo sapiens) (UniProt Q13233); test: Inhibition of partial length wild type human MAP3K1 expressed in mammalian system assessed as enzyme activity at 1 uM relative to control; parameters: scale not given: the % may be the effect or the level left
[25] = target: Tyrosine-protein kinase SYK (Homo sapiens) (UniProt P43405); test: Inhibition of partial length wild type human SYK expressed in bacterial system assessed as enzyme activity at 1 uM relative to control; parameters: scale not given: the % may be the effect or the level left
[26] = target: RAC-alpha serine/threonine-protein kinase (Homo sapiens) (UniProt P31749); test: Inhibition of partial length wild type human AKT1 expressed in bacterial system assessed as enzyme activity at 1 uM relative to control; parameters: scale not given: the % may be the effect or the level left
[27] = target: Cyclin-dependent kinase 18 (Homo sapiens) (UniProt Q07002); test: Inhibition of full length wild type human PCTK3 expressed in bacterial system assessed as enzyme activity at 1 uM relative to control; parameters: scale not given: the % may be the effect or the level left
[28] = target: Serine/threonine-protein kinase PLK4 (Homo sapiens) (UniProt O00444); test: Inhibition of partial length wild type human PLK4 expressed in mammalian system assessed as enzyme activity at 1 uM relative to control; parameters: scale not given: the % may be the effect or the level left
[29] = target: Ephrin type-B receptor 3 (Homo sapiens) (UniProt P54753); test: Inhibition of partial length wild type human EPHB3 expressed in bacterial system assessed as enzyme activity at 1 uM relative to control; parameters: scale not given: the % may be the effect or the level left
[30] = target: Ribosomal protein S6 kinase alpha-1 (Homo sapiens) (UniProt Q15418); test: Inhibition of partial length wild type human RSK1(Kin.Dom.1-N-terminal) expressed in bacterial system assessed as enzyme activity at 1 uM relative to control; parameters: scale not given: the % may be the effect or the level left
[31] = target: Tyrosine-protein kinase BTK (Homo sapiens) (UniProt Q06187); test: Inhibition of full length wild type human BTK expressed in mammalian system assessed as enzyme activity at 1 uM relative to control; parameters: scale not given: the % may be the effect or the level left

Ephrin type-B receptor 3 (Homo sapiens), sequence (P54753 whole entry): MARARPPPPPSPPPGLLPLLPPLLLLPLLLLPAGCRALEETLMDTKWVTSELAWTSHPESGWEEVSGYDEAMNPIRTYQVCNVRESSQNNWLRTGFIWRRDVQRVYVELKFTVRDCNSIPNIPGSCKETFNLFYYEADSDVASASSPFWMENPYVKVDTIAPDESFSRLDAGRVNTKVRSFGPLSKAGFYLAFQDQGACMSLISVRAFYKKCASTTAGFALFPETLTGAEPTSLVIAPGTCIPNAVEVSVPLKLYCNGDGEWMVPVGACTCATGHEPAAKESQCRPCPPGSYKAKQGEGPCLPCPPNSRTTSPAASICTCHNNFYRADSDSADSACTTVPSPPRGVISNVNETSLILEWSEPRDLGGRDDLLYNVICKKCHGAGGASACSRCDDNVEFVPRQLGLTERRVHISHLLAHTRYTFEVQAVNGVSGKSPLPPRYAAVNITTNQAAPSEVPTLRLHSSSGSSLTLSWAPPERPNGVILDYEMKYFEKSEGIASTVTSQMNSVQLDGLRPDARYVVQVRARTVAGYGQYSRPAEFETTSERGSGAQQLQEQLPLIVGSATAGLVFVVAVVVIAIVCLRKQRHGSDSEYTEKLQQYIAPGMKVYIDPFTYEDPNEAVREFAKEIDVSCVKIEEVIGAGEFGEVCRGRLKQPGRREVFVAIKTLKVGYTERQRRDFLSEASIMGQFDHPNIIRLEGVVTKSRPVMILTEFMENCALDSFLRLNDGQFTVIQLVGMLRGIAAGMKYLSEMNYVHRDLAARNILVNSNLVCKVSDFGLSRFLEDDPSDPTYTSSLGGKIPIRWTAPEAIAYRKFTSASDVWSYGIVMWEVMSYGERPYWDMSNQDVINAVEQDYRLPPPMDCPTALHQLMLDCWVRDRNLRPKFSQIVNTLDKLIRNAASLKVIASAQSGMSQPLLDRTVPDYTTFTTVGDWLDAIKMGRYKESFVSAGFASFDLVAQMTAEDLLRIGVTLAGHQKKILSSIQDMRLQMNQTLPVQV
Serine/threonine-protein kinase PLK1 (Homo sapiens), sequence (P53350 whole entry): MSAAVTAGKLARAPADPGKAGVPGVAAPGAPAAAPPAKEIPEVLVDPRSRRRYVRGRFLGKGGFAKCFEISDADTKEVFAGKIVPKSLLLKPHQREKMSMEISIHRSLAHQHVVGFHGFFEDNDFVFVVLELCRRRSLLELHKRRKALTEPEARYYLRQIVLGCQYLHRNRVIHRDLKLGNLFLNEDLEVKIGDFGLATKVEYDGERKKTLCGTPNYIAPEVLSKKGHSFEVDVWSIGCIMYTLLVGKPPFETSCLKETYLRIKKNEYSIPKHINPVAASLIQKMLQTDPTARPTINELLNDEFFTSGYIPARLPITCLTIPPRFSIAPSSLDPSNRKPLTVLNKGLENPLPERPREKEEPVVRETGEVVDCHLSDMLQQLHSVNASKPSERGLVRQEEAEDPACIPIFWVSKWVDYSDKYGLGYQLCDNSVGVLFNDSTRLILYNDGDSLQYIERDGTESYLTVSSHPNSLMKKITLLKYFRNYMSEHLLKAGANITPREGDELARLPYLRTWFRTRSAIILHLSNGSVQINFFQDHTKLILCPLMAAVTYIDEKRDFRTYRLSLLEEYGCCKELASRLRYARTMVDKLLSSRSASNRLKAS
Tyrosine-protein kinase ABL1 (Homo sapiens), sequence (P00519 whole entry): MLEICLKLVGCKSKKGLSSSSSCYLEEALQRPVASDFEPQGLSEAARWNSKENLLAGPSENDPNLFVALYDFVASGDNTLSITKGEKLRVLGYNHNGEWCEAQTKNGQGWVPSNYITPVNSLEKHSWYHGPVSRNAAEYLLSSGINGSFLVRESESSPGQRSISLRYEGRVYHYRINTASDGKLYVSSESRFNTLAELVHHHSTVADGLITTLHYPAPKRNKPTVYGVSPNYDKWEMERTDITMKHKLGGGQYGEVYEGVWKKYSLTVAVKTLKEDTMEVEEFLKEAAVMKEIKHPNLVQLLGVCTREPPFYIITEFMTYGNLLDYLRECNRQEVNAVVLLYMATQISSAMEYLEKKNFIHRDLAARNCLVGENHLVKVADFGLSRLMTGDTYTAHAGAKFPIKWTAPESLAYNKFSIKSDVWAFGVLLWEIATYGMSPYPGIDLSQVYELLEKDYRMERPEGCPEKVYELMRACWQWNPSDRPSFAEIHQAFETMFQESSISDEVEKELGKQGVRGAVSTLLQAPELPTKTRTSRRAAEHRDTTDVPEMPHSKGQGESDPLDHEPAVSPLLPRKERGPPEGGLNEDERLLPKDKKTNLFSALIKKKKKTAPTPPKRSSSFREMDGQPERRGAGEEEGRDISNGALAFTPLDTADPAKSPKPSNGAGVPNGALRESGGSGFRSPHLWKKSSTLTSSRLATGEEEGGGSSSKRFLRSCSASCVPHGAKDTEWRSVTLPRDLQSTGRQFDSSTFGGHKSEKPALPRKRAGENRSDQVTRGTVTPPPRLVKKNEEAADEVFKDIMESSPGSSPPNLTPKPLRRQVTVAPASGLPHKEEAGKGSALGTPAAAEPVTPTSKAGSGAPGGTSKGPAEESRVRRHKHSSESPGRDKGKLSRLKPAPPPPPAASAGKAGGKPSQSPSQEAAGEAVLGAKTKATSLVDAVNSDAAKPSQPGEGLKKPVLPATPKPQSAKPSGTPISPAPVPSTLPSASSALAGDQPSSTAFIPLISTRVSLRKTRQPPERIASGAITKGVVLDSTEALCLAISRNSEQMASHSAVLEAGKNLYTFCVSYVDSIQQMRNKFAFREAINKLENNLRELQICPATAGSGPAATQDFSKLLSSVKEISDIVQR
Cyclin-dependent kinase 18 (Homo sapiens), sequence (Q07002 whole entry): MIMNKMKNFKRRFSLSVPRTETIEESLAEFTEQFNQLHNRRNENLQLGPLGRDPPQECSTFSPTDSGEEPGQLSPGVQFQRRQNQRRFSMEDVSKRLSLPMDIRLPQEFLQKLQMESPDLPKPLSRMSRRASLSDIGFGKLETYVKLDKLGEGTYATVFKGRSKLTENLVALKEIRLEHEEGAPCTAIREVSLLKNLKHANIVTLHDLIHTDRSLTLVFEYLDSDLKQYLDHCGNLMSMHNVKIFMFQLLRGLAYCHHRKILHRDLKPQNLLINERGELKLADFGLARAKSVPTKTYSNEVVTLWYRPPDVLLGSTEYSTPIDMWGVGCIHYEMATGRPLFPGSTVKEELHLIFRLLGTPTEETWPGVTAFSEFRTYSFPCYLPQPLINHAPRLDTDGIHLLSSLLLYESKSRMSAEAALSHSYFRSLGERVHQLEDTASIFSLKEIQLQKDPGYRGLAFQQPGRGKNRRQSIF
Serine/threonine-protein kinase PLK4 (Homo sapiens), sequence (O00444 whole entry): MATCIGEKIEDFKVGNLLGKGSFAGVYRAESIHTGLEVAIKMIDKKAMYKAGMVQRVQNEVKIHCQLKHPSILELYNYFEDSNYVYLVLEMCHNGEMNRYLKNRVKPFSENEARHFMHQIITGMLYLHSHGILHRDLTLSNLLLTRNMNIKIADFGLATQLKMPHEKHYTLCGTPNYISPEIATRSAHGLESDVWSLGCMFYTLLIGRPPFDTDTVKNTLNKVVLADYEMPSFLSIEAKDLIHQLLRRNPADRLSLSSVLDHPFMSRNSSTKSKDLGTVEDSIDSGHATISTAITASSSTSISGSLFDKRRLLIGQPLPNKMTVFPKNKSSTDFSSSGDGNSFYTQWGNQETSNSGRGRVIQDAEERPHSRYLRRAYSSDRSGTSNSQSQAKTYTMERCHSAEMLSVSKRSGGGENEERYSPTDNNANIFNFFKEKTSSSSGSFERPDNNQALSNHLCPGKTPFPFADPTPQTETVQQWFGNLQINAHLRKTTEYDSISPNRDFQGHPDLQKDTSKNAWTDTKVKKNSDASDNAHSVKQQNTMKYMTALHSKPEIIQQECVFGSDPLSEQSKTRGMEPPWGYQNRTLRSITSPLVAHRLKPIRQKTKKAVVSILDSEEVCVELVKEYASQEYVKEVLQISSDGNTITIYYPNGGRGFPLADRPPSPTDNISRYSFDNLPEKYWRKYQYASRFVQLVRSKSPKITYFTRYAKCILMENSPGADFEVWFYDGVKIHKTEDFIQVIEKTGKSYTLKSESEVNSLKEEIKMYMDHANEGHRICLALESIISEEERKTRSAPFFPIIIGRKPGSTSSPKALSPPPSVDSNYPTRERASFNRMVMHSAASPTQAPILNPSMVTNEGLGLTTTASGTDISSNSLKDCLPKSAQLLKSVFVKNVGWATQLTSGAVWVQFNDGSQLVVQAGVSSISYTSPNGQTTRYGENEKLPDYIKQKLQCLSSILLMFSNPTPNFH
Protein kinase C epsilon type (Homo sapiens), sequence (Q02156 whole entry): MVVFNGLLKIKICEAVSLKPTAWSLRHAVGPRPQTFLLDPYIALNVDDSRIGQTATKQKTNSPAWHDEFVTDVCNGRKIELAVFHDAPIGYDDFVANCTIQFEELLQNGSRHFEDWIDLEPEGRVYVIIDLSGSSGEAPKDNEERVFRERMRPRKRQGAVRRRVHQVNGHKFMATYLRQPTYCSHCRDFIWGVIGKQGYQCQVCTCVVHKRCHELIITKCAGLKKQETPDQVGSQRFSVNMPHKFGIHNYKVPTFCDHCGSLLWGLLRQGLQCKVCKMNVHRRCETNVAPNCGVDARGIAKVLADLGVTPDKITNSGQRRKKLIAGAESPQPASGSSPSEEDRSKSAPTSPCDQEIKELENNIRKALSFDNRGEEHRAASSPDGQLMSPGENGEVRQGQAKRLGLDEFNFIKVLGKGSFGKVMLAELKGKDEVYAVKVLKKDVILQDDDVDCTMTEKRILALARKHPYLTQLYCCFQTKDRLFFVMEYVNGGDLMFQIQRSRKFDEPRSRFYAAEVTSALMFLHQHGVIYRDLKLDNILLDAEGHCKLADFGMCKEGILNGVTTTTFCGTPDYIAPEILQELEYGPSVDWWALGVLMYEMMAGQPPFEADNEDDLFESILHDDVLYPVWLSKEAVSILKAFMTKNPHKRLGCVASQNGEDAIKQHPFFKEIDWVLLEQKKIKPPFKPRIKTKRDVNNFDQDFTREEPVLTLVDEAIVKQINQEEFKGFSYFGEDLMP

Activity [1]: 96%
Activity [2]: 90%
Activity [3]: 99%
Activity [4]: 66%
Activity [5]: 100%
Activity [6]: 96%
Activity [7]: 91%
Activity [8]: 100%
Activity [9]: 91%
Activity [10]: 100%
Activity [11]: 87%
Activity [12]: 100%
Activity [13]: 100%
Activity [14]: 94%
Activity [15]: 100%
Activity [16]: 100%
IC50 [17]: 8 nM
Activity [18]: 64%
Activity [19]: 77%
Activity [20]: 63%
Activity [21]: 74%
Activity [22]: 83%
Activity [23]: 83%
Activity [24]: 83%
Activity [25]: 76%
Activity [26]: 87%
Activity [27]: 89%
Activity [28]: 91%
Activity [29]: 94%
Activity [30]: 94%
Activity [31]: 95%
Compound: CN(C)S(=O)(=O)Nc1ccc(F)c(Nc2ncccc2-c2ncnc3[nH]cnc23)c1F
Ratio (MIA PaCa-2): 33
